Test results: article PMC11508334, “In Vitro Evaluation of New 5-Nitroindazolin-3-one Derivatives as Promising Agents against Trypanosoma cruzi” (International Journal of Molecular Sciences, 2024)

Experiments:
[1] = test system: trypomastigote form of T. cruzi; test: Analysis of ATP levels (CellTiter-Glo); type: cell-based, Trypanosoma cruzi; conditions: trypomastigotes; relative to negative control
Method: The CellTiter-Glo® Luminescent Cell Viability Assay (Promega, Fitchburg, WI, USA) was used to detect variations in ATP levels. After incubation, treated parasites were centrifuged (6000 rpm, 10 min, 4 °C) and treated according to the manufacturer’s instructions. Luminescence was determined using the Varioskan™ LUX multi-mode microplate reader (ThermoFisher Scientific). Results were expressed as a percentage relative to the negative control without treatment. Sodium azide (20 mM NaN3 for 3 h) was added as a positive control and benznidazole as a reference treatment. (1) %relative control=luminescence sample/luminescence control∗100

[2] = test system: RAW 264.7 cells; test: Cytotoxicity MTT assay on RAW 264.7 cells; type: cell-based; conditions: Mus musculus, RAW264.7, in vitro cytotoxicity, murine RAW 264.7 macrophages
Method: The compounds under study, dissolved in dimethylsulfoxide (DMSO), were added to the culture media at 10–200 μM. RAW 264.7 cells were cultured in 96-well plates (5 × 10^4 cells per well), and 100 μL of 0.5 mg/mL MTT was added to each well. The DMSO final concentration was less than 0.1% v/v. After incubation for 4 h at 37 °C, the generated water-insoluble formazan dye was dissolved by adding 100 μL of 10% w/v sodium dodecyl sulfate (SDS) in 0.01 M HCl. The plates were further incubated overnight at 37 °C; […] 0.5% of Triton X-100 was added as a positive control. The plates were further incubated overnight at 37 °C, and the optical density of the wells was determined using a microplate reader (Asys Expert Plus©, Asys Hitachi, Vienna, Austria) at 570 nm. Under these conditions, the optical density is directly proportional to the viable cell number in each well. All experiments were performed at least thrice and data were reported as means and their standard deviations from triplicate cultures. Results are reported as IC50 regarding the control (uninfected cells in culture medium)

[3] = test system: T. cruzi epimastigote stage (Dm28c strain); test: Epimastigotes viability study (MTT); type: cell-based, Trypanosoma cruzi; conditions: for IC50: Trypanosoma cruzi, T. cruzi Dm28c epimastigotes, 24 h, MTT; for SI Epimastigote: Selectivity Index IC50 macrophages RAW 264.7/IC50 epimastigotes Dm28c
Method: The trypanocidal activity was evaluated against the T. cruzi epimastigote stage (Dm28c strain). It was measured through the MTT assay using 0.22 mg/mL phenazine methosulfate (as an electron carrier). T. cruzi epimastigote from the author's collection (Programa de Farmacología Molecular y Clínica, Facultad de Medicina, Universidad de Chile, Santiago, Chile) were grown at 28 °C in liver infusion tryptase (LIT) medium, as reported earlier, but replacing blood with 4 μM hemin. […] fetal bovine serum (FBS) was added to a final concentration of 10% v/v. In this colorimetric assay for testing the trypanocidal activity, the compounds were dissolved in DMSO. They were added to 3 × 10^6 parasites/mL at 100 μM final concentrations in RPMI 1640 culture medium without phenol red for 24 h at 28 °C. The final concentration of DMSO was less than 0.1% v/v. […] The MTT assay, which was described previously, determined the viability of the epimastigotes.

[4] = test system: trypomastigotes of T. cruzi; test: Plasmatic membrane permeability assay (SYTOX Green) on trypomastigotes; type: cell-based, Trypanosoma cruzi; conditions: compound at IC50, 1 h
Method: Late growth-phase trypomastigotes of T. cruzi (3 × 10^6/well) were washed and incubated in the dark with 1 μM SYTOX Green probe (Molecular Probes) in HANKS′ balanced salts solution (HBSS; Sigma-Aldrich) supplemented with 10 mM D-glucose (HBSS + Glu). The test compound was added at IC50, and fluorescence was measured after 1 h of treatment. The maximum permeabilization was obtained with 0.5% Triton X-100. Fluorescence intensity was determined using Varioskan™ LUX multimode microplate reader (ThermoFisher Scientific, Waltham, MA, USA), with excitation and emission wavelengths of 485 and 520 nm, respectively. The following internal controls were used in the evaluation: (i) the background fluorescence of the compound at the respective wavelengths and (ii) the possible interference of DMSO. Samples were tested in triplicate.

[5] = test system: Dm28c trypomastigote of T. cruzi; test: Mitochondrial membrane potential (TMRM incorporation); type: cell-based, Trypanosoma cruzi; conditions: trypomastigotes, compound at IC50, 3 h; compared to negative control
Method: Mitochondrial membrane potential (ψm) was determined by the incorporation of the fluorescent probe tetramethylrhodamine methyl ester (TMRM). […] Then, carbonylcyanide-m-chlorophenylhydrazone (CCCP, 10 µM) was added as a control and incubated at 37 °C in humidified air and 5% CO2 for 3 h. Parasites were washed with phosphate-buffered saline (pH 7.4), and suspensions were incubated with TMRM (50 nM) for 15 min. Fluorescence measurements determined the incorporation of the probe at an excitation wavelength of 550 nm and an emission of 590 nm. All the assays were performed in darkness.

[6] = test system: Dm28c trypomastigotes; test: Trypomastigote viability study (MTT); type: cell-based, Trypanosoma cruzi; conditions: for SI Trypomastigote: Selectivity Index IC50 macrophages RAW 264.7/IC50 trypomastigotes Dm28c; for IC50: Trypanosoma cruzi, T. cruzi Dm28c trypomastigotes, 24 h, MTT
Method: Vero cells (ATCC CCL-81) were infected with Dm28c trypomastigotes at a 1:3 (cell: parasite) ratio. T. cruzi trypomastigotes were initially obtained from primary cultures of peritoneal macrophage from chagasic mice. […] Vero cell cultures were then infected with trypomastigotes and incubated at 37 °C in humidified air and 5% CO2 for 5–7 days. After that time, the culture medium was collected and centrifuged at 500× g for 5 min. The trypomastigote-containing pellet was re-suspended in RPMI 1640 supplemented with inactivated FBS and penicillin–streptomycin at a final 1 × 10^7 parasites/mL density. Trypomastigote viability assays were performed using the MTT reduction method as described previously. Then, 1 × 10^7 parasites/mL was incubated in RPMI 1640 with inactivated FBS at 37 °C for 24 h with or without the studied compounds.

[7] = Cyclic voltammetry, reduction of nitro group; type: physicochemical; conditions: for −EpaIII: anodic peak potential of couple IIIc/IIIa; for −EpaIII / −EpcIII / −E1/2: given with inverted sign, vs. Ag/AgCl electrode in DMSO; for −EpcIII: cathodic peak potential of couple IIIc/IIIa; for Ipa/Ipc: current ratio RNO2/RNO2•−, couple IIIc/IIIa, DMSO; for −E1/2: half-wave potential of couple IIIc/IIIa
Method: Cyclic Voltammetry (CV) was carried out using a Metrohm Autolab instrument model PGSTAT204, using dimethyl sulfoxide (DMSO) as the solvent (1 mM solutions), tetrabutylammonium perchlorate (0.1 M TBAP) as the supporting electrolyte, a hanging drop mercury electrode (HDME) as the working electrode, Ag/AgCl (3M KCl) as the reference electrode, and a graphite rod as the counter electrode. All measurements were performed after bubbling with nitrogen (N2) for 10 min.
Using Nicholson’s procedure, the Ipa/Ipc values (RNO2/RNO2^•−) were measured from each cyclic voltammogram with a scan rate between 0.1 and 2.5 V/s.

[8] = test system: RAW 264.7 cells; test: Plasma membrane permeability (SYTOX Green) of RAW 264.7 cells; type: cell-based, murine

Compound | ATP levels [1] | IC50 [2] | IC50 [3] | alteration of plasma membrane permeability (SYTOX Green incorporation) [4] | effect on mitochondrial membrane potential (ψm) [5] | SI Trypomastigote [6] | IC50 [6] | −EpaIII [7] | −EpcIII [7] | Ipa/Ipc [7] | −E1/2 [7] | effect on plasma membrane permeability (SYTOX Green incorporation) [8] | melting point | SI Epimastigote [3]
Cn1c(=O)c2cc([N+](=O)[O-])ccc2n1C [Compound 3b] | significantly reduced ATP levels | > 200 µM | 28.6 ± 2.1 µM | alter plasma membrane permeability | statistically significant impact | >4.8 | 41.8 ± 1.1 µM | 1.03 V | 1.13 V | 1.00 | 1.08 V |  |  | 
COc1ccccc1Cn1c(=O)c2cc([N+](=O)[O-])ccc2n1C [Compound 15, 2-(2-Methoxybenzyl)-1-methyl-5-nitro-1,2-dihydro-3H-indazol-3-one] |  | 36.3 ± 1.1 µM | > 100 µM |  |  |  | > 100 µM | 1.04 V | 1.16 V | 0.96 | 1.10 V | significantly affect permeability | 210 to 212 °C | 
Cn1c2ccc([N+](=O)[O-])cc2c(=O)n1Cc1cccc(Br)c1 [Compound 13, 2-(3-Bromobenzyl)-1-methyl-5-nitro-1,2-dihydro-3H-indazol-3-one] | significantly reduced ATP levels | > 200 µM | 79.8 ± 2.3 µM | alter plasma membrane permeability | statistically significant impact | >4.6 | 43.6 ± 1.1 µM | 0.99 V | 1.13 V | 0.97 | 1.06 V |  | 149 to 151 °C | >2.5
Cn1[nH]c2ccc([N+](=O)[O-])cc2c1=O [Compound 3a] |  | 26.1 ± 0.8 µM | 8.9 ± 1.3 µM |  |  | 1.4 | 18.5 ± 0.9 µM | 0.95 V | 1.13 V | 0.99 | 1.04 V | significantly affect permeability |  | 2.9
Cn1c2ccc([N+](=O)[O-])cc2c(=O)n1Cc1ccc(F)cc1 [Compound 8, 2-(4-Fluorobenzyl)-1-methyl-5-nitro-1,2-dihydro-3H-indazol-3-one] |  | 116 ± 1.7 µM | 36.4 ± 0.8 µM |  |  | 2.0 | 57.8 ± 1.3 µM | 0.99 V | 1.14 V | 1.00 | 1.07 V |  | 139 to 141 °C | 3.2
O=c1[nH]n(-c2ccccc2)c2ccc([N+](=O)[O-])cc12 [Compound 22] | significantly reduced ATP levels | > 200 µM | 6.2 ± 0.9 µM | alter plasma membrane permeability | statistically significant impact | >13.1 | 15.3 ± 1.2 µM | 1.26 V |  | 0.59 | 1.33 V |  |  | >32.3
COc1ccc(Cn2c(=O)c3cc([N+](=O)[O-])ccc3n2C)cc1 [Compound 16, 2-(4-Methoxybenzyl)-1-methyl-5-nitro-1,2-dihydro-3H-indazol-3-one] |  | > 200 µM | > 100 µM |  |  |  | > 100 µM | 1.03 V | 1.15 V | 0.91 | 1.09 V |  | 139 to 141 °C | 
Cn1c2ccc([N+](=O)[O-])cc2c(=O)n1Cc1cccc(Cl)c1 [Compound 10, 2-(3-Chlorobenzyl)-1-methyl-5-nitro-1,2-dihydro-3H-indazol-3-one] |  | > 200 µM | 40.3 ± 2 µM |  |  | >3.7 | 54.2 ± 1.1 µM | 0.96 V | 1.17 V | 0.93 | 1.07 V |  | 154 to 156 °C | >5.0
